Assay [1] concerns the target GAPDH (Homo sapiens, UniProt P04406). Description: GAPDH equilibrium in the GAPDH/PGK1 coupled assay. The conditions noted are these: without PGK1. The format is biochemical. The text has this: FIG. 6A-D. CBR-470-1 inhibits PGK1 in vitro and in situ. (a) Schematic of the GAPDH/PGK1 coupled assay. Pre-equilibration of the GAPDH reaction (top left) results in an NAD^+/NADH equilibrium, which upon addition of PGK1 and ADP pulls the reaction to the right producing more NADH. Monitoring NADH absorbance after addition of PGK1 (bottom right) can be used to monitor PGK1 activity in the forward direction (right). […] (c, d) Relative level of central metabolites in IMR32 cells treated with viral knockdown of PGK1 for 72 hours (c) (n=4) and with CBR-470-1 relative DMSO alone for the indicative times (d) (n=3). Each metabolite is normalized to the control condition at each time point. Data shown represent mean±SEM of biologically independent samples.
Recombinant PGK1 assay. PGK1 enzymatic activity in the forward direction was measured with a coupled enzymatic assay^34. Three PGK1 conditions were prepared by dissolving recombinant PGK1 in potassium phosphate buffer (10 mM KH2PO4, 10 mM MgSO4, pH 7.0), and transferring the aliquots of PGK1 solution to the microtubes being treated with same amount of DMSO and indicated concentrations of CBR-470-1. Final concentration of PGK1 is 20 ng/mL and DMSO is 1% for each sample. […] The change in absorbance at 340 nm at room temperature was measured every 20 seconds for 45 minutes, by Tecan Infinite M200 plate reader. […]

Assay [2] concerns IMR32 cells. Description: Targeted LC-MS measurement of cellular MGx levels in IMR32 cells. The format is cell-based. The conditions noted are these: relative to DMSO. The text has this:
FIG. 8A-H. MGx and glyoxylase activity regulates NRF2 activation. CBR-470-1 causes elevated MGx levels in cells. (a) Schematic depicting chemical derivatization and trapping of cellular MGx for analysis by targeted metabolomics using two unique fragment ions. (b, c) Daughter ion fragments (b) and resulting MS/MS quantification of MGx levels (c) in IMR32 cells treated with CBR-470-1, relative to DMSO (n=4). (d) Quantitative LC-MS/MS measurement of cellular MGx levels in IMR32 cells treated for 2 hours with CBR-470-1 or co-treated for 2 hours with CBR-470-1 and NAC (2 mM) relative to DMSO (n=4).
Quantitative Metabolomic Profiling. […] Metabolite peak transitions and retention times are listed in Table 2 and were confirmed by running standards for measured glycolytic, PPP, CAC and co-factor metabolites. 2-phosphoglycerate and 3-phosphoglycerate isomers were quantified in aggregate (2PG/3PG). Relative metabolite abundance was quantified by integrated peak area for the given MRM-transition, and all metabolite levels were normalized to internal standard extracted ion intensity values for d3-serine. These parameters were used to quantify all metabolites, with the exception of 1,3-BPG and MGx, which required chemical derivitization to stable intermediates prior to LC-MS/MS quantification, as previously reported^20, 33. […]

The subject of assay [3] is 20 line panel. The experiment in a line: Viability in 20 cell line panel correlated with CCLE mRNA levels. It is filed as cell-based. As to the method: FIG. 36A-B. Viability assays performed in each cell line with compound treatment with CBR-470-1. Concentrations ranging from 0.1 to 30 micromolar for 48 hr. Viability was measured using Cell titer glo ATP quantification assay. Representative curves for three cell lines at 48 are shown on the left in (A). Table of 20 cell line IC50 values are shown in (B).
It was analyzed whether 1,3-BPG, which is directly metabolized by PGK1, could be involved in signaling to the KEAP1-NRF2 pathway via phosphoglyceryl-lysine (pgK) modification of KEAP1. […] Viability assays were performed in IMR32, OVCAR3, and A549 cell lines with compound treatment with CBR-470-1. Concentrations ranging from 0.1 to 30 micromolar for 48 hr. Viability was measured using Cell titer glo ATP quantification assay. Representative curves for three cell lines at 48 are shown in (FIG. 36A). Table of 20 cell line IC50 values are shown in (FIG. 36B).
Each point in FIG. 37 represents the correlation value (R^2) between cell line IC50 value (i.e. sensitivity) to CBR-470 plotted against the relative mRNA level (Z-score) for that cell line, and all other cell lines in the 20 line panel. mRNA levels were curated from the cancer cell line encyclopedia (CCLE).

Sequence of GAPDH (P04406 whole entry, species assumed): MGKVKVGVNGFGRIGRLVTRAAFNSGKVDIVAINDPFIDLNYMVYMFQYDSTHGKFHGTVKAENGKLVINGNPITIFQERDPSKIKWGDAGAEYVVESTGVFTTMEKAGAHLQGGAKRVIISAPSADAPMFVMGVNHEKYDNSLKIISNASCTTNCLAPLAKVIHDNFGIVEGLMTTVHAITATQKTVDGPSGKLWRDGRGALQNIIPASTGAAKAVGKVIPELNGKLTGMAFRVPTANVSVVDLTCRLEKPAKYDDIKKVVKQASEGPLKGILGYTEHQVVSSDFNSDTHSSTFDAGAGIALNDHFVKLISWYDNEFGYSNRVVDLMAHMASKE

On to `CC(C)CN[C@H]1CS(=O)(=O)C[C@@H]1S(=O)(=O)c1ccc(Cl)cc1` [CBR-470-1], for which the GAPDH equilibrium entry in assay [1] is given as “does not affect the GAPDH equilibrium alone”. The “cellular MGx levels” value in assay [2] was “significant elevation of cellular MGx levels in the first few hours of treatment”. For the same compound, in assay [3], the “sensitivity (IC50) versus GLO1 mRNA level” value is given as “high GLO1 exhibit higher sensitivity” and the “sensitivity (IC50) versus NRF2 target gene expression” value is on record as “lower NRF2 target gene expression show increased sensitivity”.
